Source: patent US8163768B2, “1,4-dihydropyridine-fused heterocycles, process for preparing the same, use and compositions containing them” (Aventis Pharma S.A.., priority 2005, dated 2012)
Counter-ions that a name gives are not always drawn.

Assays:
Aurora2 (Aurora-A) = target: T1, Aurora2 (Aurora-A) (Homo sapiens, UniProt O14965); experiment: Aurora 2 (Aurora A) kinase radioactivity scintillation assay using nickel chelate Flash plates; format: biochemical; settings: 10 nM Aurora-A, 500 nM NuMA substrate, 1 μM ATP with [33P] ATP, 10 mM MgCl2, 30 minutes, 37° C.
T1 construct: Aurora-A: the full length recombinant protein including an N-terminal poly-histidine tail has been expressed in E. coli; poly-histidine (N); made in house; host or cells: E. coli
T1 sequence (O14965 1-403): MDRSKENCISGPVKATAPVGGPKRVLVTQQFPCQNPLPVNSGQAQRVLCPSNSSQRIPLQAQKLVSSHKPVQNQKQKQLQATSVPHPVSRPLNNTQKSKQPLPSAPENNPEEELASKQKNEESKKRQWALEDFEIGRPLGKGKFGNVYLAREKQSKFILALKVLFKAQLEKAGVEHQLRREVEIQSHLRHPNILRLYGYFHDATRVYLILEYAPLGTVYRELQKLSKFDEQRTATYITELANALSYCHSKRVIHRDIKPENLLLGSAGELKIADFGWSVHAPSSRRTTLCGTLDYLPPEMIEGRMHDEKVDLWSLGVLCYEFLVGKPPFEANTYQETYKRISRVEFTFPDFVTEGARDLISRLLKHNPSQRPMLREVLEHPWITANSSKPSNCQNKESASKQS
How it was run: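 10 nM Aurora-B or Aurora-A with 500 nM NuMA-His substrate, 1 μM ATP plus [³³P]ATP, in 50 mM NaCl, 1 mM DTT and 5 mM (B) or 10 mM (A) MgCl2, 30 min at 37° C on nickel-chelate plates. Incorporated ³³P counted after washing, background-subtracted; IC50 fitted from % inhibition versus concentration.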

Aurora1 (Aurora-B) = target: T2, Aurora1 (Aurora-B) (Homo sapiens, UniProt Q96GD4); experiment: Aurora 1 (Aurora B) kinase radioactivity scintillation assay using nickel chelate Flash plates; format: biochemical; settings: 10 nM Aurora-B (co expressed with C3 fragment of INCEP), 500 nM NuMA substrate, 1 μM ATP with [33P] ATP, 5 mM MgCl2, 30 minutes, 37° C.
T2 construct: Aurora-B: the full length protein (His tagged in N-terminal) has been co expressed in SF9 cells; poly-histidine (N); made in house; host or cells: SF9 cells
T2 sequence (Q96GD4 whole entry, species assumed, the tested form may be a part): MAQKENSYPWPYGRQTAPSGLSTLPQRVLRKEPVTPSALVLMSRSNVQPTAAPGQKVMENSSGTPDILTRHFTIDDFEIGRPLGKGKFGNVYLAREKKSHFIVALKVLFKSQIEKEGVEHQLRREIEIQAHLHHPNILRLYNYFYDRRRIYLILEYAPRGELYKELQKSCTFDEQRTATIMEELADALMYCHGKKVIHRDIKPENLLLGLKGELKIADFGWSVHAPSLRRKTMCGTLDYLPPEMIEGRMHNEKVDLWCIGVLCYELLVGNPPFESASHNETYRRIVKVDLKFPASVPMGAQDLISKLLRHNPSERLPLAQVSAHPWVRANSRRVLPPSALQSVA
T2 sequence (Q9NQS7 821-918 partner limits assumed, species assumed): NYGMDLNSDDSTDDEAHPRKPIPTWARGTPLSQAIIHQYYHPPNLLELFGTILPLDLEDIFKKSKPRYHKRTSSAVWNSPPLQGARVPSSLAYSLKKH
Experimental: Aurora 1 and 2 (Respectively. Aurora B and A)
The inhibitory effect of compounds with respect to the Aurora 1 and 2 kinases is determined with a radioactivity scintillation assay using nickel chelate.
The kinase activity of Aurora is measured by the phosphorylation of NuMA-histidine substrate in the presence of radiolabelled ATP ([^33P] ATP) using 96 well Flash plates where the nickel-chelate is linked to the surface of the microplate. The amount of ^33P incorporated to the substrate NuMA is proportional to the aurora activity.
The Flash plates used are nickel-chelate 96 well plates (Perkin Elmer, model SMP107).
The products to be evaluated are incubated in a 100 μl reaction volume per well in the presence of 10 nM of Aurora-B or Aurora-A, 500 nM of NuMA substrate in the following buffer: 50 mM of NaCl, 5 mM MgCl2, (Aurora-B) or 10 mM MgCl2 (Aurora-A) and 1 mM of DTT at 37° C.
80 μL of enzyme/substrate incubation buffer is distributed in each well, followed by 10 μL of solution of compound to be measured with various concentrations. The reaction is started by adding 1 μM of ATP (final concentration) containing 0.2 μCi of [^33P] ATP (10 μL). After 30 minutes of incubation the reaction is stopped by removal of the reaction mixture and each well is washed twice with 300 μl of buffer Tris/HCl. The radioactivity is measured in each well using a Packard Top count scintillation counter instrument.
The enzymatic activity is expressed as counts per minute obtained in 30 minutes after subtraction of the background noise (reaction medium without enzyme). The measurement is expressed as percentage of inhibition of Aurora activity versus the control. To generate IC50 values, compounds of the invention are tested at different concentration and the percentage of inhibition are plotted as function of compound concentration, IC50s are calculated using the Xlfit 4 curve fitting software.

SMILES: O=C1CC(c2ccco2)CC2=C1C(c1ccc(Sc3nc4ccccc4[nH]3)o1)c1c[nH]nc1N2 (centres unmarked) [Example 34, 4-[5-(1H-Benzimidazol-2-ylsulfanyl)-furan-2-yl]-7-furan-2-yl-2,4,6,7,8,9-hexahydro-pyrazolo[3,4-b]quinolin-5-one; compound with trifluoro-acetic acid]
- IC50 (Aurora2 (Aurora-A)): 23 nM
- IC50 (Aurora1 (Aurora-B)): 5 nM

SMILES: CCOC(=O)c1[nH]cc2c1NC1=C(C(=O)CCCC1)C2c1ccc(Sc2nc3ccccc3[nH]2)o1 (centres unmarked) [Example 107, 10-[5-(1H-Benzoimidazol-2-ylsulfanyl)-furan-2-yl]-9-oxo-2,4,5,6,7,8,9,10-octahydro-2,4-diaza-cyclohepta[f]indene-3-carboxylic acid ethyl ester, compound with trifluoroacetic acid]
- IC50 (Aurora2 (Aurora-A)): 2940 nM
- IC50 (Aurora1 (Aurora-B)): 2580 nM

SMILES: COc1ccc2nc(Oc3ccc(C4C5=C(CCCC5=O)Nc5n[nH]cc54)o3)[nH]c2c1 (centres unmarked) [Example 77, 4-[5-(6-Methoxy-1H-benzimidazol-2-yloxy)-furan-2-yl]-2,4,6,7,8,9-hexahydro-pyrazolo[3,4-b]quinolin-5-one; compound with trifluoro-acetic acid]
- IC50 (Aurora2 (Aurora-A)): 2480 nM
- IC50 (Aurora1 (Aurora-B)): 473 nM

SMILES: CC1(C)CC(=O)C2=C(C1)Nc1n[nH]cc1C2c1ccc(Sc2nc3cc(C(F)(F)F)ccc3[nH]2)o1 (centres unmarked) [Example 96, 4-[5-(5-Trifluoromethyl-1H-benzoimidazol-2-ylsulfanyl)-furan-2-yl]-7,7-dimethyl-2,4,6,7,8,9-hexahydro-pyrazolo[3,4-b]quinolin-5-one]
- IC50 (Aurora2 (Aurora-A)): 58 nM
- IC50 (Aurora1 (Aurora-B)): 23 nM

SMILES: O=C1CCCC2=C1C(c1ccc(Sc3nc4cc(F)cc(F)c4[nH]3)o1)c1c[nH]nc1N2 (centres unmarked) [Example 144, 4-[5-(5,7-Difluoro-1H-benzimidazol-2-ylsulfanyl)-furan-2-yl]-2,4,6,7,8,9-hexahydro-pyrazolo[3,4-b]quinolin-5-one]
- IC50 (Aurora2 (Aurora-A)): 28 nM
- IC50 (Aurora1 (Aurora-B)): 6 nM

SMILES: O=C1CCCC2=C1C(c1ccc(Sc3nc4cc(C(F)(F)F)ccc4[nH]3)o1)c1cn[nH]c1N2 (centres unmarked) [Example 95, 4-[5-(5-Trifluoromethyl-1H-benzimidazol-2-ylsulfanyl)-furan-2-yl]-1,4,6,7,8,9-hexahydro-pyrazolo[3,4-b]quinolin-5-one]
- IC50 (Aurora2 (Aurora-A)): 61 nM
- IC50 (Aurora1 (Aurora-B)): 9 nM

SMILES: CC1(C)CC(=O)C2=C(C1)Nc1c(c[nH]c1C(N)=O)C2c1ccc(Sc2nc3ccccc3[nH]2)o1 (centres unmarked) [Example 125, 9-[5-(1H-Benzimidazol-2-ylsulfanyl)-furan-2-yl]-6,6-dimethyl-8-oxo-4,5,6,7,8,9-hexahydro-2H-pyrrolo[3,4-b]quinoline-3-carboxamide]
- IC50 (Aurora2 (Aurora-A)): 23 nM
- IC50 (Aurora1 (Aurora-B)): 11 nM

SMILES: Cn1c(Sc2ccc(C3C4=C(CC(C)(C)CC4=O)Nc4n[nH]cc43)o2)nc2ccccc21 (centres unmarked) [Example 84, 7,7-Dimethyl-4-[5-(1-methyl-1H-benzimidazol-2-ylsulfanyl)-furan-2-yl]-2,4,6,7,8,9-hexahydro-pyrazolo[3,4-b]quinoline-5-one]
- IC50 (Aurora2 (Aurora-A)): 947 nM
- IC50 (Aurora1 (Aurora-B)): 177 nM

SMILES: Cc1ccc2[nH]c(Sc3ccc(C4C5=C(CCCC5=O)Nc5[nH]ncc54)s3)nc2c1 (centres unmarked) [Example 101, 4-[5-(5-Methyl-1H-benzimidazol-2-ylsulfanyl)-thiophen-2-yl]-1,4,6,7,8,9-hexahydro-pyrazolo[3,4-b]quinolin-5-one]
- IC50 (Aurora2 (Aurora-A)): 1710 nM
- IC50 (Aurora1 (Aurora-B)): 60 nM

SMILES: CCOC(=O)c1[nH]cc2c1NC1=C(C(=O)CNC1)C2c1ccc(Sc2nc3cc(OC(F)(F)F)ccc3[nH]2)o1 (centres unmarked) [Example 151, 8-Oxo-9-[5-(5-trifluoromethoxy-1H-benzimidazol-2-ylsulfanyl)-furan-2-yl]-4,5,6,7,8,9-hexahydro-2H-pyrrolo[3,4-b][1,7]naphthyridine-3-carboxylic acid ethyl ester hydrochloride]
- IC50 (Aurora2 (Aurora-A)): 60 nM
- IC50 (Aurora1 (Aurora-B)): 14 nM

SMILES: O=C1CNCC2=C1C(c1ccc(Sc3nc4cc(Cl)c(Cl)cc4[nH]3)o1)c1c[nH]nc1N2 (centres unmarked) [Example 86, 4-[5-(5,6-Dichloro-1H-benzoimidazol-2-ylsulfanyl)-furan-2-yl]-2,4,6,7,8,9-hexahydro-pyrazolo[3,4-b]-1,7-naphthyridin-5-one; compound with trifluoro-acetic acid]
- IC50 (Aurora2 (Aurora-A)): 82 nM
- IC50 (Aurora1 (Aurora-B)): 17 nM

SMILES: CCOC(=O)c1[nH]cc2c1NC1=C(C(=O)CNC1)C2c1ccc(Sc2nc3cc(OC(F)F)ccc3[nH]2)o1 (centres unmarked) [Example 128, 9-[5-(5-Difluoromethoxy-1H-benzimidazol-2-ylsulfanyl)-furan-2-yl]-8-oxo-4,5,6,7,8,9-hexahydro-2H-pyrrolo[3,4-b]-1,7-naphthyridine-3-carboxylic acid ethyl ester hydrochloride]
- IC50 (Aurora2 (Aurora-A)): 114 nM
- IC50 (Aurora1 (Aurora-B)): 17 nM

SMILES: O=C1CN(CC(O)CN2CCCCC2)CC2=C1C(c1ccc(Sc3nc4ccccc4[nH]3)o1)c1c[nH]nc1N2 (centres unmarked) [Example 45, 4-[5-(1H-Benzimidazol-2-ylsulfanyl)-furan-2-yl]-7-(2-hydroxy-3-piperidin-1-yl-propyl)-2,4,6,7,8,9-hexahydro-pyrazolo[3,4-b]-1,7-naphthyridin-5-one; compound with trifluoro-acetic acid]
- IC50 (Aurora2 (Aurora-A)): 887 nM
- IC50 (Aurora1 (Aurora-B)): 43 nM

SMILES: CCOC(=O)c1[nH]cc2c1NC1=C(C(=O)CCC1)C2c1ccc(Sc2nc3cc(Cl)c(C)cc3[nH]2)o1 (centres unmarked) [Example 133, 9-[5-(5-Chloro-6-methyl-1H-benzimidazol-2-ylsulfanyl)-furan-2-yl]-8-oxo-4,5,6,7,8,9-hexahydro-2H-pyrrolo[3,4-b]quinoline-3-carboxylic acid ethyl ester]
- IC50 (Aurora2 (Aurora-A)): 31 nM
- IC50 (Aurora1 (Aurora-B)): 5 nM

SMILES: Cc1nc(Sc2ccc(C3C4=C(CC(C)(C)CC4=O)Nc4n[nH]cc43)o2)[nH]c1C (centres unmarked) [Example 99, 4-[5-(4,5-Dimethyl-1H-imidazol-2-ylsulfanyl)-furan-2-yl]-7,7-dimethyl-2,4,6,7,8,9-hexahydro-pyrazolo[3,4-b]quinolin-5-one]
- IC50 (Aurora2 (Aurora-A)): 135 nM
- IC50 (Aurora1 (Aurora-B)): 124 nM

SMILES: O=C1CCCC2=C1C(c1ccc(Sc3nc4cc(Cl)ccc4s3)o1)c1c[nH]nc1N2 (centres unmarked) [Example 73, 4-[5-(5-Chloro-benzothiazol-2-ylsulfanyl)-furan-2-yl]-2,4,6,7,8,9-hexahydro-pyrazolo[3,4-b]quinolin-5-one; compound with trifluoro-acetic acid]
- IC50 (Aurora2 (Aurora-A)): 35 nM
- IC50 (Aurora1 (Aurora-B)): 55 nM

SMILES: Cc1ccc2[nH]c(Sc3ccc(C4C5=C(CNCC5=O)Nc5n[nH]cc54)o3)nc2c1 (centres unmarked) [Example 71, 4-[5-(5-Methyl-1H-benzimidazol-2-ylsulfanyl)-furan-2-yl]-2,4,6,7,8,9-hexahydro-pyrazolo[3,4-b]-1,7-naphthyridin-5-one; compound with trifluoro-acetic acid]
- IC50 (Aurora2 (Aurora-A)): 187 nM
- IC50 (Aurora1 (Aurora-B)): 15 nM

SMILES: CC1CC(=O)C2=C(C1)Nc1n[nH]cc1C2c1ccc(Sc2nc3ccccc3[nH]2)o1 (centres unmarked) [Example 28, 4-[5-(1H-Benzimidazol-2-ylsulfanyl)-furan-2-yl]-7-methyl-2,4,6,7,8,9-hexahydro-pyrazolo[3,4-b]quinolin-5-one; compound with trifluoro-acetic acid]
- IC50 (Aurora2 (Aurora-A)): 17 nM
- IC50 (Aurora1 (Aurora-B)): 5 nM

SMILES: CCOC(=O)c1[nH]cc2c1NC1=C(C(=O)CNC1)C2c1ccc(Sc2nc3cc(Cl)ccc3[nH]2)o1 (centres unmarked) [Example 131, 9-[5-(5-Chloro-1H-benzimidazol-2-ylsulfanyl)-furan-2-yl]-8-oxo-4,5,6,7,8,9-hexahydro-2H-pyrrolo[3,4-b]-1,7-naphthyridine-3-carboxylic acid ethyl ester hydrochloride]
- IC50 (Aurora2 (Aurora-A)): 82 nM
- IC50 (Aurora1 (Aurora-B)): 10 nM
